Laboratory results from patent US12435080B2, “sGC stimulators” (Tisento Therapeutics Inc., priority 2016, dated 2025).
pEC50: −log10 of the molar value. Values joined by “and” are separate entries in the source; they are usually repeats but may differ in a detail not shown here. Equal entries are not always repeated.

Biological target: T1, sGC enzyme (Homo sapiens, UniProt Q02108+Q02153)
T1 construct: incorporated into these cells detect cGMP formed by the compounds stimulating the sGC enzyme; host or cells: HEK293 cells stably expressing GloSensor 40F cGMP biosensor
T1 sequence (Q02153 1-619): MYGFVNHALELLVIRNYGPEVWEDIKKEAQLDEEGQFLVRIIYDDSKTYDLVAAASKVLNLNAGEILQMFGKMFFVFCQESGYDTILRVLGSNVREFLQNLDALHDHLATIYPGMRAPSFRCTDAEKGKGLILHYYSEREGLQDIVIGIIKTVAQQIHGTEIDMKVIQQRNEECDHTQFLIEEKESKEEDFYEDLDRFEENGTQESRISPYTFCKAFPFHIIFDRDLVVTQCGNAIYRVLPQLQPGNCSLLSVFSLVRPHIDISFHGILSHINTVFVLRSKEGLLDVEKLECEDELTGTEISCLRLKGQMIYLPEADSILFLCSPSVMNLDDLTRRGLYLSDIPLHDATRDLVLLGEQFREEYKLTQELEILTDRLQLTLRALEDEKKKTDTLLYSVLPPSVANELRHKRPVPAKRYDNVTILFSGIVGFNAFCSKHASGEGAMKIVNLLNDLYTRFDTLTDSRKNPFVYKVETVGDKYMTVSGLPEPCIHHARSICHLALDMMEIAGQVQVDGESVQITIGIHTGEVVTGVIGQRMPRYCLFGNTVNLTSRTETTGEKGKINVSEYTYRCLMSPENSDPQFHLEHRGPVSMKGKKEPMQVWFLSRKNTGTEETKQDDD
T1 sequence (Q02108 1-690): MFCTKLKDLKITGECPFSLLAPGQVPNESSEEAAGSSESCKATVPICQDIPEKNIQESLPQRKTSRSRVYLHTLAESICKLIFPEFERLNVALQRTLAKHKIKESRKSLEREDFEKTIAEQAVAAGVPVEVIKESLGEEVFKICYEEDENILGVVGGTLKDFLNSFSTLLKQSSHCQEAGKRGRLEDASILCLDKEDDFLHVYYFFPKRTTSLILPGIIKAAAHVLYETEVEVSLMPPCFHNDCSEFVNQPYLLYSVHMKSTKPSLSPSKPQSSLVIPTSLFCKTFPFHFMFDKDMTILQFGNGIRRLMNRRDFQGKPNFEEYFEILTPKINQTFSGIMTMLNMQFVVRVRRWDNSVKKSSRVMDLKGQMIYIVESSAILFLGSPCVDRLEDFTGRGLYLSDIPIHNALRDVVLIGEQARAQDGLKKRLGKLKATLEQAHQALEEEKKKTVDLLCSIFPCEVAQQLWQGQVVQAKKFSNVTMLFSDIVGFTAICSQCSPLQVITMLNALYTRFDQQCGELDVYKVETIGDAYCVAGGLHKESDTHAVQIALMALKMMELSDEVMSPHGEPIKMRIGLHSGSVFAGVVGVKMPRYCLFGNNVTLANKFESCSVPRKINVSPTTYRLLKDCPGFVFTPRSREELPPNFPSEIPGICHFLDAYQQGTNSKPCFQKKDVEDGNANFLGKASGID
Assay: cGMP GloSensor cell-based assay, 384-well format
Details: HEK293 cells expressing GloSensor 40F cGMP; 10 μM DETA-NONOate; normalized to 30 μM Compound Y; compounds in Table IA; read-out: Glo-sensor AbsEC50
In short: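 HEK293 cells expressing GloSensor 40F cGMP luciferase biosensor, preloaded with 2 mM GloSensor substrate for 90 min at 25 °C. Endpoint luminescence read after 55 min compound incubation at room temperature.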

For `Fc1cccc(Cc2nn(-c3nc(C(F)(F)F)n[nH]3)c3cccnc23)c1F` [Compound I-105, 3-(2,3-Difluorobenzyl)-1-(3-(trifluoromethyl)-1H-1,2,4-triazol-5-yl)-1H-pyrazolo[4,3-b]pyridine], the pEC50 was over 7.00.
`Fc1ccccc1Cc1nn(-c2nc(C(F)F)n[nH]2)c2cccnc12` [Compound I-101, 1-(3-(Difluoromethyl)-1H-1,2,4-triazol-5-yl)-3-(2-fluorobenzyl)-1H-pyrazolo[4,3-b]pyridine] was tested, and the pEC50 was over 7.00.
In the case of `Fc1cccc(Cn2nc(-c3nc(C(F)(F)F)n[nH]3)c3cccnc32)c1F` [Compound I-48, 1-(2,3-Difluorobenzyl)-3-(3-(trifluoromethyl)-1H-1,2,4-triazol-5-yl)-1H-pyrazolo[3,4-b]pyridine], the pEC50 was 6.00 to 7.00 and > 7.00.
`FC(F)(F)c1n[nH]c(-c2nn(CCC(F)(F)C(F)(F)F)c3ncccc23)n1` [Compound I-2, 1-(3,3,4,4,4-pentafluorobutyl)-3-(3-(trifluoromethyl)-1H-1,2,4-triazol-5-yl)-1H-pyrazolo[3,4-b]pyridine] gave a pEC50 of 6.00 to 7.00.
`Fc1ccccc1Cc1nn(-c2nc(C(F)(F)F)n[nH]2)c2cccnc12` [Compound I-31, 3-(2-Fluorobenzyl)-1-(3-(trifluoromethyl)-1H-1,2,4-triazol-5-yl)-1H-pyrazolo[4,3-b]pyridine] showed a pEC50 of 6.00 to 7.00.
`FC(F)(F)c1n[nH]c(-c2nn(Cc3ccccc3)c3ncccc23)n1` [Compound I-49, 1-Benzyl-3-(3-(trifluoromethyl)-1H-1,2,4-triazol-5-yl)-1H-pyrazolo[3,4-b]pyridine] was tested, and the pEC50 was over 7.00.
In the case of `Fc1cccc(Cn2nc(-c3nc(Cl)n[nH]3)c3cccnc32)c1F` [Compound I-86, 3-(3-Chloro-1H-1,2,4-triazol-5-yl)-1-(2,3-difluorobenzyl)-1H-pyrazolo[3,4-b]pyridine], the pEC50 was over 7.00.
Work on `FC(F)(F)c1n[nH]c(-c2nn(Cc3cncnc3)c3ncccc23)n1` [Compound I-4, 1-(Pyrimidin-5-ylmethyl)-3-(3-(trifluoromethyl)-1H-1,2,4-triazol-5-yl)-1H-pyrazolo[3,4-b]pyridine] yielded a pEC50 of over 7.00.
Work on `Fc1ccccc1Cn1nc(-c2nc(C3CC3(F)F)n[nH]2)c2cccnc21` (stereo not drawn) [Compound I-96, 3-(3-(2,2-Difluorocyclopropyl)-1H-1,2,4-triazol-5-yl)-1-(2-fluorobenzyl)-1H-pyrazolo[3,4-b]pyridine] yielded a pEC50 of over 7.00.
Work on `N#Cc1n[nH]c(-c2nn(Cc3ccccc3F)c3ncccc23)n1` [Compound I-41] yielded a pEC50 of over 7.00.
`Cc1ncc(Cn2nc(-c3nc(C(F)(F)F)n[nH]3)c3ccccc32)cn1` [Compound I-62, 1-((2-methylpyrimidin-5-yl)methyl)-3-(3-(trifluoromethyl)-1H-1,2,4-triazol-5-yl)-1H-indazole] was tested, and the pEC50 was over 7.00.
`OCc1n[nH]c(-c2nn(Cc3ccccc3F)c3ncccc23)n1` [Compound I-64, (5-(1-(2-fluorobenzyl)-1H-pyrazolo[3,4-b]pyridin-3-yl)-1H-1,2,4-triazol-3-yl)methanol] was tested, and the pEC50 was over 7.00.
